Like-named read-outs stand apart in the source and are kept apart here.
Experiments:
[1] = molecular target: EZH2 (Homo sapiens, UniProt Q15910); assay: EZH2 assay (rPRC2, 3H SAM methyl transfer to biotinylated oligonucleosomes, FlashPlate); assay type: biochemical
Protocol: (§1) EZH2 Assay: Assays were carried out by mixing rPRC2 together with biotinylated oligonucleosome substrates in the presence of the radio-labeled enzyme co-factor, S-adenosyl-L-methionine (^3H SAM) (Perkin Elmer) and monitoring the enzymatically mediated transfer of tritiated methyl groups from ^3H SAM to histone lysine residues. The amount of resulting tritiated methyl histone product was measured by first capturing the biotinylated oligonucleosomes in streptavidin (SAV) coated FlashPlates (Perkin Elmer), followed by a wash step to remove un-reacted ^3H SAM, and then counting on a TopCount NXT 384 well plate scintillation counter (Perkin Elmer). The final assay conditions for EZH2 were as follows: 50 mM Tris Buffer pH 8.5, 1 mM DTT, 69 μM Brij-35 detergent, 5.0 mM MgCl2, 0.1 mg/mL BSA, 0.2 μM ^3H SAM, 0.2 μM biotinylated oligonucleosomes, 3.6 μM H3K27me3 peptide and 2 nM EZH2.
(§2) A 12.5 μL volume of the HMT enzyme, H3K27me3 peptide and oligonucleosome substrate in assay buffer was added to each well of the assay plate using a Multidrop Combi (ThermoFisher). Compounds were pre-incubated with the enzyme for 20 min, followed by initiation of the methyltransferase reaction by addition of 12.5 μL of ^3H SAM in assay buffer (final volume=25 μL). The final concentrations of compounds ranged from a top default concentration of 80 μM down to 0.16 μM in ten 2-fold dilution steps. Reactions were carried out for 60 minutes and quenched with 20 μL per well of 1.96 mM SAH, 50 mM Tris pH 8.5, 200 mM EDTA. Stopped reactions were transferred to SAV coated Flashplates (Perkin Elmer), incubated for 120 min, washed with a plate washer, and then read on the TopCount NXT (1.0 min/well) to measure the amount of methyl histone product formed during the reaction.

[2] = molecular target: Y641N EZH2 (Homo sapiens, UniProt Q15910, Y641N); assay: Y641N EZH2 assay (as EZH2 assay, H3K27Me2 oligonucleosomes as substrate); assay type: biochemical
Protocol: as §1, §2

[3] = tested on: H3K27me3 mark in HeLa cells; assay: H3K27me3 Alpha Hela Assay (AlphaLISA); assay type: cell-based; conditions: Homo sapiens, 72 hrs, read-out: EZH2_Cell_H3K27me3_Alpha_HeLa (EC50_K27me3)
Protocol: Ten different doses of each test compound (in a series of 3-fold dilutions) were plated in duplicate 384-well tissue culture treated plates (Catalog #781080; Greiner Bio One; Monroe, N.C.). Hela cells grown in culture were trypsinized and counted using a Countess® cell counter (Catalog # C10281; Life Technologies, Grand Island, N.Y.). Cell were diluted to 67,000 cells per mL in 10% DMEM (Catalog #10569-010 Life Technologies, Grand Island, N.Y.) and 15 μL (1,000 cells) were plated into each well using the Biotek MicroFlo™ Select Dispenser (BioTek Instruments, Inc. Vermont, USA),) of the 384-well plate. Plates were incubated at 37° C./5% CO2 for 72 hrs. One of the duplicate plates was processed for HeLa assay and the other for viability.
To the plate processed for AlphaLISA was added 5 μL per well Cell-Histone Lysis buffer (1λ) (Catalog # AL009F1 Perkin Elmer; Waltham, Mass.) and the plate was incubated at RT for 30 minutes on a plate shaker with low speed (Model#4625-Q Thermo Scientific; Waltham, Mass.). Then, 10 μL per well Histone Extraction buffer (catalog # AL009F2; Perkin Elmer; Waltham, Mass.) was added and the plate further incubated at RT for 20 min on plate shaker with low speed. To each well was then added 10 μL per well of a 5× mix of anti-K27me3 acceptor beads plus Biotinylated anti-Histone H3 (C-ter) Antibody (diluted to 3 nM final) (Catalog #AL118 Perkin Elmer; Waltham, Mass.). Dilution of the acceptor beads and then anti-Histone H3 was with 1× Histone Detection buffer (Catalog # AL009F3 Perkin Elmer; Waltham, Mass.) which was produced diluted from the 10× stock provided. The plate was sealed with an aluminum plate sealer and incubated at 23° C. for 60 min. We then added 10 μL 5× solution of Streptavidin Donor beads (Catalog #6760002 Perkin Elmer; Waltham, Mass.) (20 μg/mL final in 1× Histone Detection Buffer), sealed the plate with Aluminum plate sealer and incubated at 23° C. for 30 min. The plates were then read using an EnVision-Alpha Reader (model #2104 Perkin Elmer; Waltham, Mass.).
Data from both assays was analyzed using Assay Assistant (Constellation Pharmaceuticals In-house product) and Activity Base (IDBS Ltd, Surrey, UK) template. Data files were imported to Assay Assistant and assay conditions were specified. A unique Analysis ID was created and the data files exported to Activity Base. An analysis template was created on Activity Base to measure dose-dependent inhibition of H3K27me3 mark and cell viability respectively. Readout of DMSO wells were used to normalize the data. Resulting curves were fitted using Activity base software Model 205 (IDBS Ltd, Surrey, UK). The data was checked for quality, validated and integrated in excel format using SARview (IDBS Ltd, Surrey, UK).

[4] = 2 nM EZH2, 0.2 μM 3H SAM, 0.2 μM biotinylated oligonucleosomes, 3.6 μM H3K27me3 peptide, 60 min, read-out: EZH2_nuc_BSA_Brij_1.5 (IC50)
[5] = Y641N EZH2, reconstituted H3K27Me2 oligonucleosomes as substrate, read-out: EZH2_Y641N_nuc_BSA_Brij_6.0 (IC50)

Sequence of Y641N EZH2 (Q15910 whole entry Y641N): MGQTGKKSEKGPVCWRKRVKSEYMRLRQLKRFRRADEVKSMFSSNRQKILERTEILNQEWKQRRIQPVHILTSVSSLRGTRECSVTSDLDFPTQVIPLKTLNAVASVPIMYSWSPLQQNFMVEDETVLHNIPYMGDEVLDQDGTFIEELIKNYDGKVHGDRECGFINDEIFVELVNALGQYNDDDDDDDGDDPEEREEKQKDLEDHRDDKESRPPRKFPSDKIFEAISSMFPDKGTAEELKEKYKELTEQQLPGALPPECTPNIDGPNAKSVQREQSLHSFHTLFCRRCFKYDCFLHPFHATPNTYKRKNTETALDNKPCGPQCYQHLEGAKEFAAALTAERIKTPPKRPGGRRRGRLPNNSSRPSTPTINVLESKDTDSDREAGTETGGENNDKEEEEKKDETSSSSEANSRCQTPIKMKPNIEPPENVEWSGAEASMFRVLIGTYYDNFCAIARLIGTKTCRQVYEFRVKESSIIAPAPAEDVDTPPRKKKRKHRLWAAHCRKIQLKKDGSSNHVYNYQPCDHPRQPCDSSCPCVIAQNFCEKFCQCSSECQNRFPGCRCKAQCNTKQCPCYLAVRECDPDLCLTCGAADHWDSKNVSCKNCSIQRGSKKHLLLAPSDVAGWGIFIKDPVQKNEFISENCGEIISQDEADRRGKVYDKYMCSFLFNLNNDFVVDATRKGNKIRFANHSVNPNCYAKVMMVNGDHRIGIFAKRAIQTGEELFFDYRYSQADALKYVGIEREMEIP
Sequence of Y641N EZH2 (O75530 whole entry partner): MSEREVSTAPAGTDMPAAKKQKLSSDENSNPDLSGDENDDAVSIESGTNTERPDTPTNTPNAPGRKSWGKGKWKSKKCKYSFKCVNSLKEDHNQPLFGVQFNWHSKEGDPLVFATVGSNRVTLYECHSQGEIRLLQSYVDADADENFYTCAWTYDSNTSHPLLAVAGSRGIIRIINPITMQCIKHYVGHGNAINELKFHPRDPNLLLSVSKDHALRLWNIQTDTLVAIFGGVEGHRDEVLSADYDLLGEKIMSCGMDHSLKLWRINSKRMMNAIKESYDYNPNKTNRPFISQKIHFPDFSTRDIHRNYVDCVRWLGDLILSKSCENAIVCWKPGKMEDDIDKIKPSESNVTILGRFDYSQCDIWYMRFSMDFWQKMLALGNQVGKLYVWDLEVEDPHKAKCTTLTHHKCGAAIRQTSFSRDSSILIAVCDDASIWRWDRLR
Sequence of Y641N EZH2 (Q15022 whole entry partner): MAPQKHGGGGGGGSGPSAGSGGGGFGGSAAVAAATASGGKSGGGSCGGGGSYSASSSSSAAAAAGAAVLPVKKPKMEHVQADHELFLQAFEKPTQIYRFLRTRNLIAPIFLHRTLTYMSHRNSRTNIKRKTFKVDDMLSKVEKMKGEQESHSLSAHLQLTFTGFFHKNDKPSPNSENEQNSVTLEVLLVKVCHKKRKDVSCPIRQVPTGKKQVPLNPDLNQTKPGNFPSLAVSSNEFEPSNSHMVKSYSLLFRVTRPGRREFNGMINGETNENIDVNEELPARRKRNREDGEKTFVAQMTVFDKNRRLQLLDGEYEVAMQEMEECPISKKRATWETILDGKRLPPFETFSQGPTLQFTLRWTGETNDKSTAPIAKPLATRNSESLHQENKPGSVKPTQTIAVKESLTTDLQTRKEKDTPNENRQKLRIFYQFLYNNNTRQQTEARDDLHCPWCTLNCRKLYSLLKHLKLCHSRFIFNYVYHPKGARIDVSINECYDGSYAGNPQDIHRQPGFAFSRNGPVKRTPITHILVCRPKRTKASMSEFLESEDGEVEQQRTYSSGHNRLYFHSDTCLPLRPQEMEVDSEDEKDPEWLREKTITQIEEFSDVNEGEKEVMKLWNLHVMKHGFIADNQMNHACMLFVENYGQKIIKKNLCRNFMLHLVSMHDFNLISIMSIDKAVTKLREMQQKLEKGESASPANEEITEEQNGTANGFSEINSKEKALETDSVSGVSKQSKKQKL
Sequence of EZH2 (Q15910 whole entry): as the sequence (Q15910 whole entry Y641N) above, with N641Y counted along it
Sequence of EZH2 (O75530 whole entry partner): as the sequence (O75530 whole entry partner) above
Sequence of EZH2 (Q15022 whole entry partner): as the sequence (Q15022 whole entry partner) above

COc1cc(C)[nH]c(=O)c1CNC(=O)c1c(C)n([C@H](C)C2CCN(CC(C)(F)F)CC2)c2ccccc12 [Compound 101, (R)-1-(1-(1-(2,2-difluoropropyl)piperidin-4-yl)ethyl)-N-((4-methoxy-6-methyl-2-oxo-1,2-dihydropyridin-3-yl)methyl)-2-methyl-1H-indole-3-carboxamide]
IC50 [1]: < 100 nM | IC50 [2]: < 100 nM | EC50 [3]: < 400 nM

COc1cc(C)[nH]c(=O)c1CNC(=O)c1c(C)n([C@H](C)C2CCN(CC3(C(F)(F)F)CC3)CC2)c2ccccc12 [Compound 102]
IC50 [1]: < 100 nM | IC50 [2]: < 100 nM | EC50 [3]: < 400 nM

COc1cc(C)[nH]c(=O)c1CNC(=O)c1c(C)n([C@H](C)C2CCN(CC(F)(F)C(F)F)CC2)c2ccccc12 [Compound 103]
IC50 [1]: < 100 nM | IC50 [2]: < 100 nM | EC50 [3]: < 400 nM

COc1cc(C)[nH]c(=O)c1CNC(=O)c1c(C)n([C@H](C)C2CCN(C(=O)C3(C(F)(F)F)CCC3)CC2)c2ccccc12 [Compound 104]
IC50 [1]: < 100 nM | IC50 [2]: < 100 nM | EC50 [3]: < 400 nM

Cc1cc(Cl)c(CNC(=O)c2c(C)n([C@H](C)C3CCN(CC(C)(F)F)CC3)c3ccccc23)c(=O)[nH]1 [Compound 105]
IC50 [1]: < 100 nM | IC50 [2]: < 100 nM | EC50 [3]: < 400 nM

Cc1cc(Cl)c(CNC(=O)c2c(C)n([C@H](C)C3CCN(CC(F)F)CC3)c3ccccc23)c(=O)[nH]1 [Compound 106]
IC50 [1]: < 100 nM | IC50 [2]: < 100 nM | EC50 [3]: < 400 nM

CCS(=O)(=O)N1CCC([C@@H](C)n2c(C)c(C(=O)NCc3c(Cl)cc(C)[nH]c3=O)c3ccccc32)CC1 [Compound 107]
IC50 [1]: < 100 nM | IC50 [2]: < 100 nM | EC50 [3]: < 400 nM

COc1cc(C)[nH]c(=O)c1CNC(=O)c1c(C)n([C@H](C)C2CCN(Cc3cc(F)cc(F)c3)CC2)c2ccccc12 [Compound 109, (R)-1-(1-(1-(3,5-difluorobenzyl)piperidin-4-yl)ethyl)-N-((4-methoxy-6-methyl-2-oxo-1,2-dihydropyridin-3-yl)methyl)-2-methyl-1H-indole-3-carboxamide]
IC50 [1]: < 100 nM | IC50 [2]: < 100 nM | EC50 [3]: < 400 nM

Cc1cc(OC(F)F)c(CNC(=O)c2c(C)n([C@H](C)C3CCN(CC(F)F)CC3)c3ccccc23)c(=O)[nH]1 [Compound 110]
IC50 [1]: < 100 nM | IC50 [2]: < 100 nM | EC50 [3]: < 400 nM

Cc1cc(OC(F)F)c(CNC(=O)c2c(C)n([C@H](C)C3CCN(CC(C)(F)F)CC3)c3ccccc23)c(=O)[nH]1 [Compound 111]
IC50 [1]: < 100 nM | IC50 [2]: < 100 nM | EC50 [3]: < 400 nM

Cc1cc(Cl)c(CNC(=O)c2c(C)n([C@H](C)C3CCN(C4COC4)CC3)c3ccccc23)c(=O)[nH]1 [Compound 112]
IC50 [1]: < 100 nM | IC50 [2]: < 100 nM | EC50 [3]: < 400 nM

COc1cc(C)[nH]c(=O)c1CNC(=O)c1c(C)n([C@H](C)C2CCN(CC(F)(F)C(F)(F)F)CC2)c2ccccc12 [Compound 113]
IC50 [1]: < 100 nM | IC50 [2]: < 100 nM | EC50 [3]: < 400 nM

COc1cc(C)[nH]c(=O)c1CNC(=O)c1c(C)n([C@H](C)C2CCN(C(=O)C3(C(F)(F)F)CC3)CC2)c2ccccc12 [Compound 115]
IC50 [1]: < 100 nM | IC50 [2]: < 100 nM | EC50 [3]: < 400 nM

COc1cc(C)[nH]c(=O)c1CNC(=O)c1c(C)n([C@H](C)C2CCN(CC(C)(C)F)CC2)c2ccccc12 [Compound 116]
IC50 [1]: < 100 nM | IC50 [2]: < 100 nM | EC50 [3]: < 400 nM

Cc1cc(C)c(CNC(=O)c2c(C)n([C@H](C)C3CCN(S(=O)(=O)C4CNC4)CC3)c3ccccc23)c(=O)[nH]1 [Compound 171]
IC50 [1, 4]: < 100 nM | IC50 [2, 5]: < 100 nM

Cc1cc(C)c(CNC(=O)c2c(C)n([C@H](C)C3CCN(S(=O)(=O)C4CCNCC4)CC3)c3ccccc23)c(=O)[nH]1 [Compound 172]
IC50 [1, 4]: < 100 nM | IC50 [2, 5]: < 100 nM

COc1cc(C)[nH]c(=O)c1CNC(=O)c1c(C)n([C@H](C)C2CCN([S+]([O-])C(C)(C)C)CC2)c2ccccc12 (stereo partly shown) [Compound 256]
IC50 [1]: < 100 nM | EC50 [3]: < 400 nM

COc1cc(C)[nH]c(=O)c1CNC(=O)c1c(C)n([C@H](C)C2CCN(Cc3cncc(F)c3)CC2)c2ccccc12 [Compound 257]
IC50 [1]: < 100 nM | EC50 [3]: < 400 nM

COc1cc(C)[nH]c(=O)c1CNC(=O)c1c(C)n([C@H](C)C2CCN(S(=O)(=O)c3cccnc3)CC2)c2ccccc12 [Compound 258]
IC50 [1]: < 100 nM | EC50 [3]: 400 to 2000 nM

COc1cc(C)[nH]c(=O)c1CNC(=O)c1c(C)n([C@H](C)C2CCN(Cc3ccncn3)CC2)c2ccccc12 [Compound 259]
IC50 [1]: < 100 nM | EC50 [3]: < 400 nM

COc1cc(C)[nH]c(=O)c1CNC(=O)c1c(C)n([C@H](C)C2CCN(Cc3ccncc3F)CC2)c2ccccc12 [Compound 260]
IC50 [1]: < 100 nM | EC50 [3]: < 400 nM

COc1cc(C)[nH]c(=O)c1CNC(=O)c1c(C)n([C@H](C)C2CCN(Cc3cnccn3)CC2)c2ccccc12 [Compound 261]
IC50 [1]: < 100 nM | EC50 [3]: < 400 nM

COC(C)(C)CN1CCC([C@@H](C)n2c(C)c(C(=O)NCc3c(Cl)cc(C)[nH]c3=O)c3ccccc32)CC1 [Compound 262]
IC50 [1]: < 100 nM | EC50 [3]: < 400 nM

COc1cc(C)[nH]c(=O)c1CNC(=O)c1c(C)n([C@H](C)C2CCN(Cc3cccc(F)c3)CC2)c2ccccc12 [Compound 263]
IC50 [1]: < 100 nM | EC50 [3]: < 400 nM

COc1cc(C)[nH]c(=O)c1CNC(=O)c1c(C)n([C@H](C)C2CCN(Cc3ccnc(C#N)c3)CC2)c2ccccc12 [Compound 264]
IC50 [1]: < 100 nM | EC50 [3]: < 400 nM

COc1cc(C)[nH]c(=O)c1CNC(=O)c1c(C)n([C@H](C)C2CCN(C(=O)C3(F)CCC3)CC2)c2ccccc12 [Compound 265]
IC50 [1]: < 100 nM | EC50 [3]: < 400 nM

COc1cc(C)[nH]c(=O)c1CNC(=O)c1c(C)n([C@H](C)C2CCN(Cc3cc(C)ncn3)CC2)c2ccccc12 [Compound 266]
IC50 [1]: < 100 nM | EC50 [3]: < 400 nM

COc1cc(C)[nH]c(=O)c1CNC(=O)c1c(C)n([C@H](C)C2CCN(Cc3cccc(C)n3)CC2)c2ccccc12 [Compound 267]
IC50 [1]: < 100 nM | EC50 [3]: < 400 nM

COc1cc(C)[nH]c(=O)c1CNC(=O)c1c(C)n([C@H](C)C2CCN(Cc3cnccc3C#N)CC2)c2ccccc12 [Compound 268]
IC50 [1]: < 100 nM | EC50 [3]: < 400 nM

COc1cc(C)[nH]c(=O)c1CNC(=O)c1c(C)n([C@H](C)C2CCN(C(=O)C3CCOCC3)CC2)c2ccccc12 [Compound 269]
IC50 [1]: < 100 nM | EC50 [3]: 400 to 2000 nM

COc1cc(C)[nH]c(=O)c1CNC(=O)c1c(C)n([C@H](C)C2CCN(C(=O)C3CCOC3)CC2)c2ccccc12 (stereo partly shown) [Compound 270]
IC50 [1]: < 100 nM | EC50 [3]: > 2000 nM

— patent US9969716B2, “Indole derivatives as modulators of methyl modifying enzymes, compositions and uses thereof” (Constellation Pharmaceuticals, Inc., priority 2013, dated 2018)
